# From patent US20170087106A1, “Method for supporting gut health” (priority 2015, published 2017)
# Assays:
# Assay type in all cases: in vivo
# IL-12 = assay: TNBS rat colitis: colonic IL-12 mRNA by real-time PCR; details: colon, oral daily 7 days, mean ± SEM
# Procedure: (§1) Female Wistar rats (180-200 g) were randomly assigned to nine groups (n=10). Three groups received treatment with CaPyr (20, 40 and 100 mg/kg); other three received treatment with ethyl pyruvate (20, 40 and 100 mg/kg); and the remaining was treated with sulphasalazine (30 mg/kg). All compounds were dissolved in 1 ml of carboxymethylcellulose (0.2%) in water solution, and administered daily by oral gavage. An untreated TNBS control group and a non-colitic group were included for reference, which received the vehicle used to administer the test compounds. Colonic inflammation was induced in control and treated groups as generally described (see Galvez et al. 2014). Briefly, rats were fasted overnight, anesthetized with halothane and given TNBS dissolved in 0.25 ml of 50% ethanol (v/v) by means of a Teflon cannula inserted 8 cm through the anus. During and after TNBS administration, the rats were kept in a head-down position until they recovered from anaesthesia, and then returned to their cages. Rats from the non-colitic group were administered intracolonically 0.25 ml of phosphate buffered saline instead of TNBS. The treatments were given from the day of the colitis induction until the sacrifice of the rats with an overdose of halothane, seven days later. Animal body weights, occurrence of diarrhoea, and water and food intake were recorded daily throughout all the experiments. Once the animals were sacrificed, the colon was removed aseptically and placed on an ice-cold plate, longitudinally opened and cleaned from their luminal contents with cold saline. Afterwards, it was weighed and its length measured under a constant load (2 g). Each colon was scored for macroscopically visible damage on a 0-10 scale by two observers unaware of the experiment, according to the criteria described before (see Galvez et al. 2014). Colon samples (0.5 cm^2) containing all the layers were taken from a region of the inflamed colon corresponding to the adjacent segment to the gross macroscopic damage and were fixed in 4% buffered formaldehyde for the histological studies. Equivalent colonic segments were also obtained from the non-colitic group. The colon was subsequently minced, aliquoted and kept frozen at −80° C. until biochemical determinations and RNA extraction was performed.
# (§2) Analysis of gene expression in colonic samples by RT-qPCR Total RNA from colonic samples was isolated using Trizol® (Thermo Fisher Scientific Inc., Waltham, Mass. USA) following the manufacturer's protocol. All RNA samples were quantified with the Thermo Scientific NanoDrop™ 2000 Spectrophotometer (Thermo Fisher Scientific Inc., Waltham, Mass. USA) and […] of RNA were reverse transcribed using oligo(dT) primers (Promega, Southampton, UK).
# (§3) Real time quantitative PCR amplification and detection was performed on optical-grade 48 well plates in an Eco™ Real-Time PCR System (Illumina, CA, USA) with 20 ng of cDNA, the KAPA SYBR® FAST qPCR Master Mix (Illumina, CA, USA) and specific primers at their annealing temperature (Ta). To normalize mRNA expression, the expression of the housekeeping gene, glyceraldehyde-3-phosphate dehydrogenase (GAPDH) was measured. The mRNA relative quantitation was calculated using the ΔΔCt method.
# MCP-1 = assay: TNBS rat colitis: colonic MCP-1 mRNA by real-time PCR; details: colon, oral daily 7 days, mean ± SEM
# Procedure: as §1, §2, §3
# [1] = system: TNBS experimental rat colitis; assay: TNBS rat colitis: microscopic (histological) damage score; details: oral daily 7 days, mean ± SEM
# Procedure: as §1
# Cross-sections were selected and embedded in paraffin. Full-thickness sections of 5 μm were obtained at different levels and stained with haematoxylin and eosin. The histological damage was evaluated by a pathologist observer, who was blinded to the experimental groups, according to the criteria previously described by Galvez.
# IL-23 = assay: TNBS rat colitis: colonic IL-23 mRNA by real-time PCR; details: colon, oral daily 7 days, mean ± SEM
# Procedure: as §1, §2, §3
# ICAM-1 = assay: TNBS rat colitis: colonic ICAM-1 mRNA by real-time PCR; details: colon, oral daily 7 days, mean ± SEM
# Procedure: as §1, §2, §3
# glutathione (GSH) = assay: TNBS rat colitis: colonic total glutathione (GSH) content; details: colonic tissue, oral daily 7 days, mean ± SEM
# Procedure: as §1
# (§4) Myeloperoxidase (MPO) activity was measured according to the technique described previously (Krawiszet al., 1984); the results were expressed as MPO units per gram of wet tissue; one unit of MPO activity was defined as that degrading 1 μmol hydrogen peroxide/min at 25° C. Total glutathione (GSH) content was quantified with the recycling assay described by Anderson (1985), and the results were expressed as nmol/g wet tissue. In order to evaluate tissue IL-1β levels, the colonic samples were homogenized in phosphate buffered saline supplemented with 0.1% sodium dodecyl sulfate (SDS), 0.1% sodium deoxycholate, 1% Triton X-100 and protease and phosphatase inhibitors (aprotinin, leupeptin and phenylmethylsulfonyl fluoride). The cytokine was quantified by enzyme-linked immunoabsorbent assay (R&D Systems Inc., Minneapolis, Minn., USA) and the results were expressed as pg/g wet tissue.
# CINC-1 = assay: TNBS rat colitis: colonic CINC-1 mRNA by real-time PCR; details: colon, oral daily 7 days, mean ± SEM
# Procedure: as §1, §2, §3
# iNOS = assay: TNBS rat colitis: colonic iNOS mRNA by real-time PCR; details: colon, oral daily 7 days, mean ± SEM
# Procedure: as §1, §2, §3
# [2] = system: TNBS experimental rat colitis; assay: TNBS rat colitis: colonic macroscopic damage score and weight/length ratio; details: for Damage Score (0-10) / Weight/length: TNBS rat colitis, oral daily 7 days, mean ± SEM; for Weight/length: colon
# Procedure: as §1
# myeloperoxidase (MPO) = assay: TNBS rat colitis: colonic myeloperoxidase (MPO) activity; details: colonic tissue, oral daily 7 days, mean ± SEM
# Procedure: as §1, §4
# IL-6 = assay: TNBS rat colitis: colonic IL-6 mRNA by real-time PCR; details: colon, oral daily 7 days, mean ± SEM
# Procedure: as §1, §2, §3
# IL-1β [3] = assay: TNBS rat colitis: colonic IL-1β mRNA by real-time PCR; details: colon, oral daily 7 days, mean ± SEM
# Procedure: as §1, §2, §3
# MUC-2 = assay: TNBS rat colitis: colonic MUC-2 mRNA by real-time PCR; details: colon, oral daily 7 days, mean ± SEM
# Procedure: as §1, §2, §3
# IL-1β [4] = assay: TNBS rat colitis: colonic IL-1β by ELISA; details: colonic tissue, oral daily 7 days, mean ± SEM
# Procedure: as §1, §4
# IL-17 = assay: TNBS rat colitis: colonic IL-17 mRNA by real-time PCR; details: colon, oral daily 7 days, mean ± SEM
# Procedure: as §1, §2, §3
# TFF-3 = assay: TNBS rat colitis: colonic TFF-3 mRNA by real-time PCR; details: colon, oral daily 7 days, mean ± SEM
# Procedure: as §1, §2, §3
compound,measurement,setting,value
"CCOC(=O)C(C)=O [EtPyr, ethyl pyruvate]",IL-12 mRNA expression,IL-12; 20 mg/kg,1.09 ± 0.13 fold increase
same,IL-12 mRNA expression,IL-12; 40 mg/kg,1.81 ± 0.48 fold increase
same,IL-12 mRNA expression,IL-12; 100 mg/kg,1.62 ± 0.37 fold increase
same,MCP-1 mRNA expression,MCP-1; 20 mg/kg,1.23 ± 0.37 fold increase
same,MCP-1 mRNA expression,MCP-1; 40 mg/kg,1.85 ± 0.29 fold increase
same,MCP-1 mRNA expression,MCP-1; 100 mg/kg,2.21 ± 0.29 fold increase
same,Microscopic Damage Score (0-59),[1]; 20 mg/kg,25 ± 3
same,Microscopic Damage Score (0-59),[1]; 40 mg/kg,17 ± 3
same,Microscopic Damage Score (0-59),[1]; 100 mg/kg,23 ± 3
same,IL-23 mRNA expression,IL-23; 20 mg/kg,1.68 ± 0.39 fold increase
same,IL-23 mRNA expression,IL-23; 40 mg/kg,1.56 ± 0.27 fold increase
same,IL-23 mRNA expression,IL-23; 100 mg/kg,1.80 ± 0.21 fold increase
same,ICAM-1 mRNA expression,ICAM-1; 20 mg/kg,1.39 ± 0.19 fold increase
same,ICAM-1 mRNA expression,ICAM-1; 40 mg/kg,2.27 ± 0.38 fold increase
same,ICAM-1 mRNA expression,ICAM-1; 100 mg/kg,2.39 ± 0.50 fold increase
same,GSH,glutathione (GSH); 20 mg/kg,560 ± 74 nmol/g tissue
same,GSH,glutathione (GSH); 40 mg/kg,715 ± 88 nmol/g tissue
same,GSH,glutathione (GSH); 100 mg/kg,870 ± 124 nmol/g tissue
same,CINC-1 mRNA expression,CINC-1; 20 mg/kg,4.40 ± 0.65 fold increase
same,CINC-1 mRNA expression,CINC-1; 40 mg/kg,4.40 ± 0.57 fold increase
same,CINC-1 mRNA expression,CINC-1; 100 mg/kg,4.40 ± 0.90 fold increase
same,iNOS mRNA expression,iNOS; 20 mg/kg,16.17 ± 2.75 fold increase
same,iNOS mRNA expression,iNOS; 40 mg/kg,12.20 ± 1.53 fold increase
same,iNOS mRNA expression,iNOS; 100 mg/kg,22.88 ± 2.14 fold increase
same,Damage Score (0-10),[2]; 20 mg/kg,6.6 ± 0.6
same,Damage Score (0-10),[2]; 40 mg/kg,6.1 ± 0.4
same,Damage Score (0-10),[2]; 100 mg/kg,6.0 ± 0.5
same,Weight/length,[2]; 20 mg/kg,185.4 ± 31.1 mg/cm
same,Weight/length,[2]; 40 mg/kg,172.0 ± 15.8 mg/cm
same,Weight/length,[2]; 100 mg/kg,186.4 ± 13.2 mg/cm
same,effect in TNBS-induced colitis (in words),"[2]; rats, 20, 40 and 100 mg/kg body weight, 7 days oral treatment",intestinal anti-inflammatory effects
same,MPO,myeloperoxidase (MPO); 20 mg/kg,58.1 ± 11.9 mU/g tissue
same,MPO,myeloperoxidase (MPO); 40 mg/kg,61.5 ± 9.8 mU/g tissue
same,MPO,myeloperoxidase (MPO); 100 mg/kg,54.7 ± 10.8 mU/g tissue
same,IL-6 mRNA expression,IL-6; 20 mg/kg,5.60 ± 1.41 fold increase
same,IL-6 mRNA expression,IL-6; 40 mg/kg,5.60 ± 1.20 fold increase
same,IL-6 mRNA expression,IL-6; 100 mg/kg,6.00 ± 1.01 fold increase
same,IL-1β mRNA expression,IL-1β [3]; 20 mg/kg,6.90 ± 1.50 fold increase
same,IL-1β mRNA expression,IL-1β [3]; 40 mg/kg,7.20 ± 1.20 fold increase
same,IL-1β mRNA expression,IL-1β [3]; 100 mg/kg,10.21 ± 1.50 fold increase
same,MUC-2 mRNA expression,MUC-2; 20 mg/kg,0.39 ± 0.09 fold increase
same,MUC-2 mRNA expression,MUC-2; 40 mg/kg,0.70 ± 0.08 fold increase
same,MUC-2 mRNA expression,MUC-2; 100 mg/kg,0.50 ± 0.11 fold increase
same,IL-1β (ELISA),IL-1β [4]; 20 mg/kg,975.0 ± 90.1 ng/g tissue
same,IL-1β (ELISA),IL-1β [4]; 40 mg/kg,1140.0 ± 150.1 ng/g tissue
same,IL-1β (ELISA),IL-1β [4]; 100 mg/kg,975.0 ± 211.7 ng/g tissue
same,IL-17 mRNA expression,IL-17; 20 mg/kg,1.17 ± 0.27 fold increase
same,IL-17 mRNA expression,IL-17; 40 mg/kg,1.74 ± 0.33 fold increase
same,IL-17 mRNA expression,IL-17; 100 mg/kg,2.34 ± 0.30 fold increase
same,TFF-3 mRNA expression,TFF-3; 20 mg/kg,0.59 ± 0.16 fold increase
same,TFF-3 mRNA expression,TFF-3; 40 mg/kg,1.01 ± 0.05 fold increase
same,TFF-3 mRNA expression,TFF-3; 100 mg/kg,0.96 ± 0.11 fold increase
"O=C(O)c1cc(/N=N/c2ccc(S(=O)(=O)Nc3ccccn3)cc2)ccc1O [SAZ, sulphasalazine]",IL-12 mRNA expression,IL-12; 30 mg/kg,1.59 ± 0.24 fold increase
same,MCP-1 mRNA expression,MCP-1; 30 mg/kg,2.62 ± 0.41 fold increase
same,Microscopic Damage Score (0-59),[1]; 30 mg/kg,30 ± 5
same,IL-23 mRNA expression,IL-23; 30 mg/kg,1.26 ± 0.18 fold increase
same,ICAM-1 mRNA expression,ICAM-1; 30 mg/kg,2.90 ± 0.88 fold increase
same,GSH,glutathione (GSH); 30 mg/kg,900 ± 118 nmol/g tissue
same,CINC-1 mRNA expression,CINC-1; 30 mg/kg,4.89 ± 0.82 fold increase
same,iNOS mRNA expression,iNOS; 30 mg/kg,16.47 ± 2.75 fold increase
same,Damage Score (0-10),[2]; 30 mg/kg,6.7 ± 0.4
same,Weight/length,[2]; 30 mg/kg,180.4 ± 16.9 mg/cm
same,MPO,myeloperoxidase (MPO); 30 mg/kg,82.8 ± 8.2 mU/g tissue
same,IL-6 mRNA expression,IL-6; 30 mg/kg,4.21 ± 0.80 fold increase
same,IL-1β mRNA expression,IL-1β [3]; 30 mg/kg,9.70 ± 0.90 fold increase
same,MUC-2 mRNA expression,MUC-2; 30 mg/kg,0.53 ± 0.14 fold increase
same,IL-1β (ELISA),IL-1β [4]; 30 mg/kg,840.0 ± 120.0 ng/g tissue
same,IL-17 mRNA expression,IL-17; 30 mg/kg,2.22 ± 0.54 fold increase
same,TFF-3 mRNA expression,TFF-3; 30 mg/kg,0.91 ± 0.12 fold increase
